Experiments:
[1] = test system: thioredoxin reductase (TrxR); assay: Thioredoxin reductase activity in A172 cells (DTNB reduction); format: cell-based, human; conditions: 1 μM, 6 h, vs control
Procedure: (§1) To determine thioredoxin reductase (TrxR) activity and levels of reduced glutathione (GSH), glioblastoma cells were plated (4 × 10^5/well) into 12-well plates. At confluence, the cells were exposed at low concentration to IP-Se-06 (1 μM) for 6 h. After treatment time, cells were washed twice with PBS and resuspended with PBS/Triton 1%, centrifuged at 5000 g for 5 min and the supernatants were used for the determinations. All results were normalized by the protein content using the Bradford method.
TrxR activity was determined in A172 cells according to the method previously described by Arnér and collaborators, measuring the NADPH-dependent DTNB reduction to TNB (5-thio-2-nitrobenzoic acid) promoted by TrxR activity. The content of TNB derived from free thiols was measured at 412 nm. The enzyme activity was expressed as μmol·min^−1·mg protein^−1.

[2] = test system: reduced glutathione (GSH); assay: Reduced glutathione level in A172 cells (o-phthalaldehyde); format: cell-based, human; conditions: 1 μM, 6 h, vs control
Procedure: as §1
GSH was determined according to Hissin and Hilf using the fluorescent probe o-phthalaldehyde, which binds to free -SH groups forming the GS-OPT complex. This complex can be determined by fluorescence excitation at 350 nm and emission at 420 nm. Determinations were expressed in μGSH/μg protein.

A172 cells [3] = assay: Chromatin condensation detection (DAPI); format: cell-based, human; conditions: 1 μM, 72 h
Procedure: DAPI was used to analyze changes in the nuclear morphology of apoptotic cells after DNA damage. A172 cells (0.5 × 10^4/well) in 24-well plates were treated with IP-Se-06 (1 μM) for 72 h. The cells were then fixed with 4% paraformaldehyde for 10 min at 4°C. The fixed cells were washed three times with PBS (pH 7.4) and stained with DAPI (3 μg/mL) in PBS at 37°C for 10 min. Finally, the cells were washed in PBS, and nuclear morphology was photographed by a fluorescence Olympus IX83 microscope.

γ-H2AX = assay: Western blotting γ-H2AX, A172 cells; format: cell-based, human; conditions: 1 μM, vs control
Procedure: (§2) After treatment with IP-Se-06 (1 μM) for 48 h, A172 cells were harvested with a lysis buffer. The lysates were collected, and the total proteins present in the lysates were quantified according to Lowry. Proteins present in the cell lysates (30 μg) were subjected to SDS-polyacrylamide gel electrophoresis, followed by electroblotting to polyvinylidene fluoride (PVDF) membranes. Nonspecific binding was blocked by incubating the membrane with skimmed milk in TBS buffer containing 0.1% Tween 20 (TBS-T) for 1 h. After primary antibody incubation, membranes were incubated with appropriate HRP-conjugated secondary antibodies for 1 h at room temperature. Immunodetection was performed using an enhanced chemiluminescence (ECL) detection kit. Protein bands were visualized using ChemiDoc MP Imaging System (Bio-Rad) and quantified by densitometry using the freeware ImageJ by Wayne Rasband from the National Institute of Health (USA).

p53 = assay: Western blotting p53, A172 cells; format: cell-based, human; conditions: 1 μM, vs control
Procedure: as §2

Bcl-xL = assay: Western blotting Bcl-xL, A172 cells; format: cell-based, human; conditions: 1 μM, vs control
Procedure: as §2

A172 cells [4] = assay: Cell cycle analysis (PI, flow cytometry); format: cell-based, human; conditions: 1 μM, 72 h, vs untreated
Procedure: The PI/RNAse solution from the Immunostep® kit (Salamanca, Spain) was used to determine the DNA content of cells of the different phases of cell cycle by flow cytometry using the protocol proposed by the manufacturer. A172 cells were plated on 6-well plates at a density of 2 × 10^5/well until confluence and synchronization with nocodazole (30 ng/mL) for 14 h. The cells were treated with IP-Se-06 (1 μM) for 72 h, carefully washed with PBS, and fixed in cold ethanol (70%) overnight at -20°C. Finally, cells were washed again, resuspended in PI/RNAse solution, and incubated for 15 min at room temperature. Cells were analyzed using a BD FACSCanto II (BD Biosciences) flow cytometer. Data were processed using Flowing Software 2.5.1.

Akt = assay: Western blotting Akt, A172 cells; format: cell-based, human; conditions: 1 μM, 48 h, vs control
Procedure: as §2

mTOR = assay: Western blotting mTOR, A172 cells; format: cell-based, human; conditions: 1 μM, 48 h, vs control
Procedure: as §2

[5] = test system: Ehrlich ascitic carcinoma; set-up: method as in PMID 33125183; conditions: 1 mg/kg, Ehrlich ascitic carcinoma-bearing mice; cited from earlier work

For `COc1ccccc1[Se]c1c(-c2ccccc2)nc2cc(C)ccn12` [IP-Se-06, 3-((2-methoxyphenyl)selanyl)-7-methyl-2-phenylimidazol[1,2-a]pyridine], the TrxR intracellular activity [1] was “significantly decreased”, the “levels of GSH” value [2] was “significantly decreased” and the “nuclear morphology (DAPI)” value (A172 cells [3]) was “brightly stained and condensed nuclei”. For the same molecule, the “levels of γ-H2AX” value (γ-H2AX) was “increased”, the “levels of p53” value (p53) was “increased” and the “levels of Bcl-xL” value (Bcl-xL) was “decreased”. The “G2/M phase cell population” value (A172 cells [4]) was “decrease”, the S phase (A172 cells [4]) was “no significant effect” and the “cell population in the G1 phase” value (A172 cells [4]) was “increased”. The “cell proportion in sub-G1 peak” value (A172 cells [4]) was “increased”, the “levels of Akt” value (Akt) was “significant reduction” and the “levels of mTOR” value (mTOR) was “significant reduction”. For the same molecule, the angiogenesis [5] was “inhibited angiogenesis” and the tumor growth [5] was “growth inhibition of tumor”.
